The values that follow come from patent US12116358B2, “Substituted indoles and methods of use thereof” (EPIZYME, INC., priority 2018, dated 2024).

Read-outs that look alike come from different tables or passages of the source.

One experiment deals with H3K36me3 in A549 cells. The experiment can be described thus: In-Cell Western (ICW) assay of SETD2 inhibitors (A549 assay). In kind it is cell-based, human. Particulars: A549 cells, read-out: SETD2 A549. In a few lines:
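A549 cells seeded at 4,000/well onto compound and incubated 3 days at 37° C. Methanol-fixed cells stained overnight at 4° C with anti-H3K36me3 (1:1000), then IRDye 800CW secondary with DRAQ5 DNA counterstain. Plates read by Licor imaging at 700 and 800 channels.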

A further experiment deals with T1, SETD2(1434-1711) (Homo sapiens, UniProt Q9BYW2).
T1 construct: SETD2 (1434-1711) Assay; catalogue N/A
T1 sequence (Q9BYW2 1434-1711): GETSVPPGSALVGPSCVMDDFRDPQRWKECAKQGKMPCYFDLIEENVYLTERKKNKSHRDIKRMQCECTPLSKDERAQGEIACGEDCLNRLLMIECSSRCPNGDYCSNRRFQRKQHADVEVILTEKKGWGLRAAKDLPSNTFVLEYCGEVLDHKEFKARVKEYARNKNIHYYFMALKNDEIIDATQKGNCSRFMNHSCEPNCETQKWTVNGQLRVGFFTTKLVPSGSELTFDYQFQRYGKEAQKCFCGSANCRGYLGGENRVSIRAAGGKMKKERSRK
The experiment can be described thus: SETD2 (1434-1711) assay. Type of experiment: biochemical. Particulars: read-out: SETD2 (1434-1711).

In the case of `COc1cccc(CNCC(O)COc2cnc(C(NC(=O)c3cc4cccc(C)c4[nH]3)C3CC3)c(C)c2)c1` (centres unmarked) [compound 461], the IC50 in the experiment with H3K36me3 in A549 cells was determined as 6.3 µM; on SETD2(1434-1711), 0.5 µM.
The corresponding values for `CCc1cccc2cc(C(=O)NC(CCC(=O)N3CCOCC3)c3ncccc3C)[nH]c12` (centres unmarked) [compound 464] are 6.6 µM and 8.4 µM.
On to `Cc1cccc2cc(C(=O)Nc3ccc4cnc(CN5CCN(C)CC5)cc4c3)[nH]c12` [compound 465], for which the IC50 came to 6.6 µM in the experiment with H3K36me3 in A549 cells (Homo sapiens) and 0.4 µM on SETD2(1434-1711).
With `Cc1cccc2cc(C(=O)Nc3ccc4cncnc4c3)[nH]c12` [compound 466], the values for the IC50 in the experiment on H3K36me3 in A549 cells and at SETD2(1434-1711) were 7 µM and 1.9 µM, respectively.
As for `Cc1cccc2cc(C(=O)Nc3cccc(N4CCN(CCN)CC4)c3)[nH]c12` [compound 467], the results for the IC50 in the experiment on H3K36me3 in A549 cells (Homo sapiens) and at SETD2(1434-1711) were 7.3 µM and 0.4 µM, respectively.
For `Cc1ccc(F)c2cc(C(=O)Nc3cccc(N4CCOCC4CN(C)C)c3)[nH]c12` (centres unmarked) [compound 468] the same measures were 7.5 µM and 0.9 µM.
Consider `Cc1ccc(N2CCN(C)CC2)cc1NC(=O)c1cc2cccc(C)c2[nH]1` [compound 469], for which the IC50 with H3K36me3 in A549 cells (Homo sapiens) stood at 7.9 µM; on SETD2(1434-1711), 1.4 µM.
For `Cc1cc(C(=O)NC2CCN(C)CC2)cnc1C(NC(=O)c1cc2cccc(C)c2[nH]1)C1CC1` (centres unmarked) [compound 470] the same measures were 8 µM and 0.6 µM.
The corresponding values for `CCC(NC(=O)c1cc2cccc(C)c2[nH]1)c1ncccc1C` (centres unmarked) [compound 471] are 8.5 µM and 5.4 µM.
With `Cc1cc2ccccc2nc1C(NC(=O)c1cc2cccc(C)c2[nH]1)C1CC1` (centres unmarked) [compound 472], the results for the IC50 with H3K36me3 in A549 cells and at SETD2(1434-1711) were 8.5 µM and 0.9 µM, respectively.
The corresponding values for `Cc1cccc2cc(C(=O)Nc3ccc4nc(NC5CCNCC5)ncc4c3)[nH]c12` [compound 473] are 8.8 µM and 0.2 µM.
`Cc1cccnc1C(NC(=O)c1cc2cccc(C)c2[nH]1)C(C)C` (centres unmarked) [compound 474]: the IC50 in the experiment with H3K36me3 in A549 cells (Homo sapiens) was determined as 8.9 µM; on SETD2(1434-1711), 4.2 µM.
The corresponding values for `Cc1ccc(N2CCN(S(=O)(=O)CCN)CC2)cc1NC(=O)c1cc2cccc(C)c2[nH]1` [compound 476] are 9.1 µM and 0.8 µM.
For `Cc1cc(CN2CCN(C)CC2)cnc1C(NC(=O)c1cc2cccc(C)c2[nH]1)C1CC1` (centres unmarked) [compound 477] the same measures were 9.3 µM and 2.1 µM.
`Cc1cccc2cc(C(=O)Nc3cccc(CN4CCOCC4)c3)[nH]c12` [compound 478]: the results for the IC50 in the experiment with H3K36me3 in A549 cells (Homo sapiens) and on SETD2(1434-1711) were 9.4 µM and 4.1 µM, respectively.
For `Cc1cccnc1C(C)NC(=O)c1cc2cccc(C)c2[nH]1` (centres unmarked) [compound 480] the same measures were 9.5 µM and 7 µM.
Regarding `Cc1cc2nccn2nc1C(NC(=O)c1cc2c(F)ccc(C)c2[nH]1)C1CC1` (centres unmarked) [compound 481], the IC50 in the experiment with H3K36me3 in A549 cells is 9.7 µM; on SETD2(1434-1711), 1.9 µM.
The corresponding values for `Cc1cccc2cc(C(=O)NC3C(=O)NCCc4ccccc43)[nH]c12` (centres unmarked) [compound 482] are 10.2 µM and 2.2 µM.
For `Cc1cccc2cc(C(=O)NCC(C)c3ccccc3N3CCOCC3)[nH]c12` (centres unmarked) [compound 483] the same measures were 10.3 µM and 4.1 µM.
With `Cc1cccc2cc(C(=O)Nc3cnc4nccn4c3)[nH]c12` [compound 484], the IC50 was 10.6 µM in the experiment with H3K36me3 in A549 cells and 7.6 µM at SETD2(1434-1711).
Consider `CCN(CC)Cc1cccc(NC(=O)c2cc3cccc(C)c3[nH]2)c1` [compound 486], for which the IC50 in the experiment with H3K36me3 in A549 cells (Homo sapiens) turned out to be 10.8 µM; at SETD2(1434-1711) it was 1.8 µM.
Consider `Cc1cccc2cc(C(=O)Nc3ccc4ccc(CN5CCOCC5)cc4c3)[nH]c12` [compound 487], for which the IC50 in the experiment with H3K36me3 in A549 cells was 11 µM; at SETD2(1434-1711), 1.6 µM.
For `Cc1cccc2cc(C(=O)Nc3cccc(CN4CCN(C)CC4)c3)[nH]c12` [compound 488] the same measures were 11.8 µM and 2.5 µM.
Consider `Cc1cccnc1C(CN1CCOCC1)NC(=O)c1cc2cccc(C)c2[nH]1` (centres unmarked) [compound 489], for which the IC50 in the experiment on H3K36me3 in A549 cells (Homo sapiens) turned out to be 11.8 µM; on SETD2(1434-1711), 7.9 µM.
Consider `Cc1ccc(N2CCOCC2)cc1NC(=O)c1cc2cccc(C)c2[nH]1` [compound 490], for which the IC50 in the experiment on H3K36me3 in A549 cells is 12.1 µM; on SETD2(1434-1711), 6.5 µM.
For `Cc1ccc(F)c2cc(C(=O)NC(C(=O)N(C)C)c3ccccn3)[nH]c12` (centres unmarked) [compound 491] the same measures were 12.2 µM and 12.1 µM.
Regarding `Cc1cccc(O)c1C(NC(=O)c1cc2cccc(C)c2[nH]1)C1CC1` (centres unmarked) [compound 492], the IC50 in the experiment with H3K36me3 in A549 cells (Homo sapiens) is 12.5 µM; at SETD2(1434-1711), over 50 µM.
Regarding `Cc1cncnc1C(NC(=O)c1cc2cccc(C)c2[nH]1)C1CC1` (centres unmarked) [compound 493], the results for the IC50 in the experiment with H3K36me3 in A549 cells (Homo sapiens) and at SETD2(1434-1711) were 13.1 µM and over 50 µM, respectively.
On to `Cc1cccnc1C(CCCC(=O)N1CCOCC1)NC(=O)c1cc2cccc(C)c2[nH]1` (centres unmarked) [compound 494], for which the IC50 with H3K36me3 in A549 cells was determined as 13.2 µM; at SETD2(1434-1711) it was 6 µM.
For `Cc1cccc2cc(C(=O)Nc3ccc4ncc(CN(C)C)n4c3C)[nH]c12` [compound 495] the same measures were 13.3 µM and 1.8 µM.
As to `Cc1cc(C(=O)N[C@H]2CC[C@H](N)CC2)cnc1C(NC(=O)c1cc2cccc(C)c2[nH]1)C1CC1` (some centres unmarked) [compound 496], the IC50 with H3K36me3 in A549 cells is 13.4 µM; on SETD2(1434-1711), 0.4 µM.
For `Cc1ccc(F)c2cc(C(=O)NC3CCCc4cccnc43)[nH]c12` (centres unmarked) [compound 498] the same measures were 13.8 µM and 9.4 µM.
For `CC(=O)N1CCN(c2ccccc2CNC(=O)c2cc3cccc(C)c3[nH]2)CC1` [compound 499] the same measures were 13.9 µM and 9.1 µM.
For `Cc1cccnc1C(CC1CC1)NC(=O)c1cc2cccc(C)c2[nH]1` (centres unmarked) [compound 500] the same measures were 14.5 µM and 3 µM.
`Cc1ccc(F)c2cc(C(=O)Nc3cccc(-c4cnc(N)[nH]4)c3)[nH]c12` [compound 501]: the IC50 was 14.6 µM in the experiment with H3K36me3 in A549 cells and 0.4 µM on SETD2(1434-1711).
The corresponding values for `Cc1ccc(F)c2cc(C(=O)Nc3cccc(-c4cc(N)on4)c3)[nH]c12` [compound 502] are 14.7 µM and 0.5 µM.
For `Cc1ccc(F)c2cc(C(=O)NC(C(N)=O)c3ccccn3)[nH]c12` (centres unmarked) [compound 503] the same measures were 14.8 µM and 9.7 µM.
For `Cc1cccc2cc(C(=O)N[C@H]3CC[C@H](C)CC3)[nH]c12` [compound 504] the same measures were 14.9 µM and 3.8 µM.
In the case of `Cc1cccc2cc(C(=O)NC3CCOCC3)[nH]c12` [compound 505], the IC50 in the experiment with H3K36me3 in A549 cells stood at 14.9 µM; at SETD2(1434-1711) it was 11.2 µM.
The corresponding values for `Cc1ccc(=O)[nH]c1C(NC(=O)c1cc2cccc(C)c2[nH]1)C1CC1` (centres unmarked) [compound 506] are 15.1 µM and 4.9 µM.
The corresponding values for `Cc1cccc2cc(C(=O)NCC3CCCCC3N3CCOCC3)[nH]c12` (centres unmarked) [compound 508] are 15.2 µM and 10.4 µM.
For `Cc1cc(C(=O)NC2CCNC2)cnc1C(NC(=O)c1cc2cccc(C)c2[nH]1)C1CC1` (centres unmarked) [compound 510] the same measures were 15.5 µM and 0.6 µM.
As to `Cc1cccc2cc(C(=O)NCCc3ccccc3N3CCOCC3)[nH]c12` [compound 511], the values for the IC50 with H3K36me3 in A549 cells (Homo sapiens) and on SETD2(1434-1711) were 15.8 µM and 11.6 µM, respectively.
With `CC(=O)N[C@H]1CC[C@H](NC(=O)c2cc3c(F)ccc(C)c3[nH]2)CC1` [compound 512], the IC50 with H3K36me3 in A549 cells was 16.1 µM; at SETD2(1434-1711), 13.2 µM.
The corresponding values for `Cc1cccnc1C(NC(=O)c1cc2cccc(C)c2[nH]1)C1CCC1` (centres unmarked) [compound 513] are 17.4 µM and 4 µM.
For `COc1ccc(C)c2[nH]c(C(=O)NC(CCC(=O)N3CCOCC3)c3ncccc3C)cc12` (centres unmarked) [compound 514] the same measures were 18.3 µM and 24.9 µM.
The corresponding values for `COc1cccc2cc(C(=O)NC(CCC(=O)N3CCOCC3)c3ncccc3C)[nH]c12` (centres unmarked) [compound 515] are 18.5 µM and 25.1 µM.
As for `Cc1cc(C(=O)NC2CCC(N)C2)cnc1C(NC(=O)c1cc2cccc(C)c2[nH]1)C1CC1` (centres unmarked) [compound 516], the IC50 came out at 18.5 µM with H3K36me3 in A549 cells and 0.4 µM at SETD2(1434-1711).
The corresponding values for `Cc1ccc(F)c2cc(C(=O)NC(C(=O)Nc3ccccc3)c3ccccn3)[nH]c12` (centres unmarked) [compound 517] are 18.5 µM and 3.7 µM.
The corresponding values for `Cc1ccc(F)c2cc(C(=O)Nc3nnc(C4CCN(C)CC4)s3)[nH]c12` [compound 519] are 19.3 µM and 50 µM.
The corresponding values for `Cc1cccc2cc(C(=O)NC3CC(=O)Nc4ccccc4C3)[nH]c12` (centres unmarked) [compound 520] are 19.8 µM and 12.3 µM.
With `CCc1cccnc1C(NC(=O)c1cc2cccc(C)c2[nH]1)C1CC1` (centres unmarked) [compound 521], the IC50 with H3K36me3 in A549 cells (Homo sapiens) stood at 19.9 µM; at SETD2(1434-1711) it was 6.9 µM.
On to `Cc1cccc2cc(C(=O)NC3CCCCC3)[nH]c12` [compound 522], for which the IC50 worked out at 20.6 µM in the experiment on H3K36me3 in A549 cells and 10.6 µM at SETD2(1434-1711).
For `Cc1cccnc1C(CCC(=O)Nc1cccnc1)NC(=O)c1cc2cccc(C)c2[nH]1` (centres unmarked) [compound 523] the same measures were 20.8 µM and 8.8 µM.
For `Cc1ccc(F)c2cc(C(=O)Nc3cccc(-c4nnc(N)[nH]4)c3)[nH]c12` [compound 524] the same measures were 20.9 µM and 1.5 µM.
